From patent US20060252807A1, “Novel ortho-terphenyl inhibitors of p38 kinase and methods of treating inflammatory disorders” (Kalypsys, Inc., priority 2005, published 2006)

biological target: T1, active p38 alpha enzyme (Upstate Biotechnology) (Homo sapiens, UniProt Q16539); test: p38α biochemical assay (ATP turnover, luminescent detection, Cambrex PKlight); conditions: p38α kinase; Table 1 Biological Activity
T1 construct: purchased Upstate Biotechnology
How it was run: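 Active human p38α was incubated with full-length MapkapK2 protein as substrate and 1.4 uM ATP (final) for 2 hours at 30C. Buffer: 200 mM Tris, 100 mM MgCl2, 1.5 mM EGTA, 4 mM CaCl2, 20 mM MOPS, 1 mM EDTA, 1% glycerol, 0.1% β-mercaptoethanol, 1 mg/ml BSA. Total ATP turnover read by luminescence.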

T1 sequence (Q16539 whole entry): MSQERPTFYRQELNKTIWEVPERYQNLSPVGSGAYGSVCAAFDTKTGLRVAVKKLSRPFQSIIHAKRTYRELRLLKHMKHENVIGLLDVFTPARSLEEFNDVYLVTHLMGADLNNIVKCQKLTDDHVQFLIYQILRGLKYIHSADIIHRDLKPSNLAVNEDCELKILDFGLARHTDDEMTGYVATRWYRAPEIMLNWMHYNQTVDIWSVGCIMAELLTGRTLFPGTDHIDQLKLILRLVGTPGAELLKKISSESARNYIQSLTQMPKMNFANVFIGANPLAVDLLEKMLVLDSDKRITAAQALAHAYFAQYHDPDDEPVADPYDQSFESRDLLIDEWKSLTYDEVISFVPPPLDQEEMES

Compound	IC50 [µM]
N#CCCN(Cc1ccccc1)C(=O)c1csc(-c2c(-c3ccc(F)cc3)n[nH]c2C2CCNCC2)n1 [Example 2132]	> 1
CC(C)(C)OC(=O)NCCNC(=O)c1csc(-c2c(-c3ccc(F)cc3)n[nH]c2C2CCNCC2)n1 [Example 2133]	> 1
O=C(NCCc1c[nH]c2ccccc12)c1csc(-c2c(-c3ccc(F)cc3)n[nH]c2C2CCNCC2)n1 [Example 2134]	> 1
CN(CCCNC(=O)c1csc(-c2c(-c3ccc(F)cc3)n[nH]c2C2CCNCC2)n1)c1ccccc1 [Example 2136]	> 1
O=C(NCC1(O)CCCCC1)c1csc(-c2c(-c3ccc(F)cc3)n[nH]c2C2CCNCC2)n1 [Example 2137]	> 1
CCOC(=O)N1CCC(NC(=O)c2csc(-c3c(-c4ccc(F)cc4)n[nH]c3C3CCNCC3)n2)CC1 [Example 2141]	> 1
CC(C)(C)OC(=O)NCCCNC(=O)c1csc(-c2c(-c3ccc(F)cc3)n[nH]c2C2CCNCC2)n1 [Example 2142]	> 1
O=C(NC1CCN(Cc2ccccc2)C1)c1csc(-c2c(-c3ccc(F)cc3)n[nH]c2C2CCNC2)n1 (centres unmarked) [Example 2147]	> 1
COc1ccc(OC)c(CCNC(=O)c2csc(-c3c(-c4ccc(F)cc4)n[nH]c3C3CCNCC3)n2)c1 [Example 2148]	> 1
O=C(NC1CCN(Cc2ccccc2)CC1)c1csc(-c2c(-c3ccc(F)cc3)n[nH]c2C2CCNCC2)n1 [Example 2151]	> 1
NS(=O)(=O)c1ccc(CCNC(=O)c2csc(-c3c(-c4ccc(F)cc4)n[nH]c3C3CCNCC3)n2)cc1 [Example 2153]	> 1
COc1ccc(C(=O)CNC(=O)c2csc(-c3c(-c4ccc(F)cc4)n[nH]c3C3CCNCC3)n2)cc1 [Example 2154]	> 1
O=C(NCCc1ccc2c(c1)OCO2)c1csc(-c2c(-c3ccc(F)cc3)n[nH]c2C2CCNCC2)n1 [Example 2155]	> 1
O=C(NCCC(c1ccccc1)c1ccccc1)c1csc(-c2c(-c3ccc(F)cc3)n[nH]c2C2CCNCC2)n1 [Example 2156]	> 1
Cc1ccc(S(=O)(=O)NCCNC(=O)c2csc(-c3c(-c4ccc(F)cc4)n[nH]c3C3CCNCC3)n2)cc1 [Example 2157]	> 1
Cc1nc(-c2ccc(F)cc2)c(-c2nc(C(=O)NC(C)C)cs2)[nH]1 [Example 2158, 2-|5-(4-Fluoro-phenyl)-2-methyl-3H-imidazol-4-yl|-thiazole-4-carboxylic acid isopropylamide]	≤ 1
Cc1nc(-c2ccc(F)cc2)c(-c2nc(C(N)=O)cs2)o1 [Example 2159, 2-|4-(4-Fluoro-phenyl)-2-methyl-oxazol-5-yl|-thiazole-4-carboxylic acid amide]	> 1
CC(C)NC(=O)c1coc(-c2c(-c3ccc(F)cc3)noc2C2CCNCC2)n1 [Example 2160, 2-|3-(4-Fluoro-phenyl)-5-piperidin-4-yl-isoxazol-4-yl|-oxazole-4-carboxylic acid isopropylamide]	≤ 1
COCCOCn1nc(-c2ccc(F)cc2)c(-c2nc(C=O)cs2)c1C [Example 2161, 2-|3-(4-Fluoro-phenyl)-1-(2-methoxy-ethoxymethyl)-5-methyl-1H-pyrazol-4-yl|-thiazole-4-carbaldehyde]	> 1
CC(C)NC(=O)c1csc(-c2c(-c3ccc(Cl)cc3)ncn2C2CCNCC2)n1 [Example 2162, 2-|5-(4-Chloro-phenyl)-3-piperidin-4-yl-3H-imidazol-4-yl|-thiazole-4-carboxylic acid isopropylamide]	> 1
CC(=O)N1CCC(n2cnc(-c3ccc(Cl)cc3)c2-c2nc(C(=O)NC(C)C)cs2)CC1 [Example 2163]	≤ 1
CC(C)NC(=O)c1csc(-c2c(-c3ccc(F)cc3)n[nH]c2C2CCN(C(=O)[C@H](C)O)CC2)n1 [Example 2165, 2-{3-(4-Fluoro-phenyl)-5-|1-(2-hydroxy-propionyl)-piperidin-4-yl|-1H-pyrazol-4-yl}-thiazole-4-carboxylic acid isopropylamide]	≤ 1
CC(C)NC(=O)c1csc(-c2c(-c3ccc(F)cc3)n[nH]c2C2CCN(C(=O)C(C)(C)O)CC2)n1 [Example 2166, 2-{3-(4-Fluoro-phenyl)-5-|1-(2-hydroxy-2-methyl-propionyl)-piperidin-4-yl|-1H-pyrazol-4-yl}-thiazole-4-carboxylic acid isopropylamide]	≤ 1
CC(=O)N1CCC(c2[nH]nc(-c3ccc(F)cc3)c2-c2nc(C(=O)NC(C)C)cs2)CC1 [Example 2167, 2-|5-(1-Acetyl-piperidin-4-yl)-3-(4-fluoro-phenyl)-1H-pyrazol-4-yl|-thiazole-4-carboxylic acid isopropylamide]	≤ 1
COCCOCC(=O)N1CCC(c2[nH]nc(-c3ccc(F)cc3)c2-c2nc(C(=O)NC(C)C)cs2)CC1 [Example 2168, 2-(3-(4-Fluoro-phenyl)-5-{1-|2-(2-methoxy-ethoxy)-acetyl|-piperidin-4-yl}-1H-pyrazol-4-yl)-thiazole-4-carboxylic acid isopropylamide]	≤ 1
CC(C)NC(=O)c1csc(-c2c(-c3ccc(F)cc3)n[nH]c2C2CCN(C(=O)c3ccccn3)CC2)n1 [Example 2169, 2-{3-(4-Fluoro-phenyl)-5-|1-(pyridine-2-carbonyl)-piperidin-4-yl|-1H-pyrazol-4-yl}-thiazole-4-carboxylic acid isopropylamide]	≤ 1
CC(C)NC(=O)c1csc(-c2c(-c3ccc(F)cc3)n[nH]c2C2CCN(C(=O)c3ccccc3)CC2)n1 [Example 2170, 2-|5-(1-Benzoyl-piperidin-4-yl)-3-(4-fluoro-phenyl)-1H-pyrazol-4-yl|-thiazole-4-carboxylic acid isopropylamide]	> 1

The next lines start with the values.

IC50 [µM]	Compound
> 1	CC(C)(C)c1ccc(CNC(=O)c2csc(-c3c(-c4ccc(F)cc4)n[nH]c3C3CCNCC3)n2)cc1 [Example 2135]
> 1	COc1cc(CNC(=O)c2csc(-c3c(-c4ccc(F)cc4)n[nH]c3C3CCNCC3)n2)cc(OC)c1 [Example 2138]
> 1	COc1ccc(CNC(=O)c2csc(-c3c(-c4ccc(F)cc4)n[nH]c3C3CCNCC3)n2)cc1OC [Example 2139]
> 1	O=C(CNC(=O)c1csc(-c2c(-c3ccc(F)cc3)n[nH]c2C2CCNCC2)n1)c1ccccc1 [Example 2140]
> 1	O=C(NCc1ccc(C(F)(F)F)cc1)c1csc(-c2c(-c3ccc(F)cc3)n[nH]c2C2CCNCC2)n1 [Example 2143]
> 1	O=C(NCc1cccc(C(F)(F)F)c1)c1csc(-c2c(-c3ccc(F)cc3)n[nH]c2C2CCNCC2)n1 [Example 2144]
> 1	O=C(NCc1ccc(Cl)c(Cl)c1)c1csc(-c2c(-c3ccc(F)cc3)n[nH]c2C2CCNCC2)n1 [Example 2145]
> 1	O=C(NCc1ccc(Cl)cc1Cl)c1csc(-c2c(-c3ccc(F)cc3)n[nH]c2C2CCNCC2)n1 [Example 2146]
> 1	CN(C)c1ccc(CNC(=O)c2csc(-c3c(-c4ccc(F)cc4)n[nH]c3C3CCNCC3)n2)cc1 [Example 2149]
≤ 1	COc1ccc(CNC(=O)c2csc(-c3c(-c4ccc(F)cc4)n[nH]c3C3CCNCC3)n2)cc1O [Example 2150]
> 1	O=C(NCc1ccccc1OC(F)(F)F)c1csc(-c2c(-c3ccc(F)cc3)n[nH]c2C2CCNCC2)n1 [Example 2152]
